The source of these data is patent US20080096811A1, “[…] VPAC2 RECEPTOR PEPTIDE AGONISTS” (Eli Lilly and Company, published 2008).

Test [1] concerns the target T1, human VPAC2 (Homo sapiens, UniProt P41587).
T1 construct: expressed in transfected cells
T1 sequence (P41587 24-438): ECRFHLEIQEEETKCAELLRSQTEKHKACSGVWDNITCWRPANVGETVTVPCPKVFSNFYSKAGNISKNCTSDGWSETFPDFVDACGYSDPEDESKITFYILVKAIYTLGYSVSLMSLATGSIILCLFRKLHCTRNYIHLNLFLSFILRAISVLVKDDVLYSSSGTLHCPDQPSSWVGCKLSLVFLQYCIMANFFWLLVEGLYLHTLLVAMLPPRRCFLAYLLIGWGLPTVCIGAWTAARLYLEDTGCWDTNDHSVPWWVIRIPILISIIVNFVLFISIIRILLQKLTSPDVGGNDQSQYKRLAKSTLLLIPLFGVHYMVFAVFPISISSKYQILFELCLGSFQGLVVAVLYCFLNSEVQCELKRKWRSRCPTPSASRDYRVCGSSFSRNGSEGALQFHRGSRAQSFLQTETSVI
The test can be described thus: Filter binding assay, human VPAC2 membranes, 125I-labeled VIP tracer. On the procedure: (§1) For this assay, the solutions and equipment include:
(§2) Presoak solution: 0.5% Polyethyleneamine in Aqua dest.
(§3) Buffer for flushing filter plates: 25 mM […] pH 7.4
(§4) Blocking buffer: 25 mM HEPES pH 7.4; 0.2% protease free BSA
(§5) Assay buffer: 25 mM HEPES pH 7.4; 0.5% protease free BSA
(§6) Dilution and assay plate: PS-Microplate, U form
(§7) Filtration Plate Multiscreen FB Opaque Plate; […] Type B Glasfiber filter
(§8) In order to prepare the filter plates, aspirate the presoak solution by vacuum filtration. Flush the plates twice with 200 μL flush buffer. Add 200 μL blocking buffer to the filter plate. The filter plate is then incubated […] for 1 hour at room temperature.
(§9) Fill the assay plate with 25 μL assay buffer, 25 μL membranes (2.5 μg) suspended in assay buffer, 25 μL compound (agonist) in assay buffer, and 25 μL tracer (about 40000 cpm) in assay buffer. Incubate the filled plate for 1 hour with shaking.
(§10) Conduct the transfer from assay plate to filter plate. Aspirate the blocking buffer by vacuum filtration and wash two times with flush buffer. Transfer 90 μL from the assay plate to the filter plate. Aspirate the 90 μL transferred from assay plate and wash three times with 200 μL flush buffer. Remove the plastic support. Dry for 1 hour at 60° C. Add 30 μL Microscint. Perform the count.

Test [2] deals with human PAC1 (Homo sapiens, UniProt P41586). Put plainly: biochemical. On the procedure: as §1, §2, §3, §4, §5, §6, §7, §8, §9, §10
Test [3] addresses T2, human VPAC1 (Homo sapiens, UniProt P32241).
T2 sequence (P32241 31-457): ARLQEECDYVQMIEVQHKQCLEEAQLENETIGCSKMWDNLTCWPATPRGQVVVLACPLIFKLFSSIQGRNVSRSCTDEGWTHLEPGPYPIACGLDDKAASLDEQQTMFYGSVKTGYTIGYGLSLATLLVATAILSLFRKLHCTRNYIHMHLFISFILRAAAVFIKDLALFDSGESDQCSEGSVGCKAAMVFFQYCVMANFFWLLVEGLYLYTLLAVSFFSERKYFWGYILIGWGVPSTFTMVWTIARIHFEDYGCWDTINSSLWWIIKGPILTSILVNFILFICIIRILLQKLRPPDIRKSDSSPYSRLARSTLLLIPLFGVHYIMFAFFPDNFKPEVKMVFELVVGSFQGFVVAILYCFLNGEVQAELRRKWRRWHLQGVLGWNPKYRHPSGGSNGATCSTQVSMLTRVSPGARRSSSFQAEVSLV
Put plainly: Filter binding assay, human VPAC1 membranes, 125I-labeled VIP tracer. The arrangement: expressed in transfected cells. As to the method:
as §1, §2, §3, §4, §5, §6, §7, §8, §9, §10

The target of test [4] is T1, human VPAC2. Put plainly: Alpha screen cAMP in vitro potency, human VPAC2. Format: cell-based. As to the method: Alpha screen: Cells are washed in the culture flask once with PBS. Then, the cells are rinsed with enzyme free dissociation buffer. The dissociated cells are removed. The cells are then spun down and washed in stimulation buffer. For each data point, 50,000 cells suspended in stimulation buffer are used. To this buffer, Alpha screen acceptor beads are added along with the stimuli. This mixture is incubated for 60 minutes. Lysis buffer and Alpha screen donor beads are added and are incubated for 60 to 120 minutes. The Alpha screen signal (indicative of intracellular cAMP levels) is read in a suitable instrument (e.g. AlphaQuest from Perlin-Elmer). Steps including Alpha screen donor and acceptor beads are performed in reduced light.

Test [5] has as its target T3, human VPAC2 receptor (human) (UniProt P41587).
T3 sequence: T1 sequence (P41587 24-438)

*1 amine or outer side, *2 acyl side, *3 side chain or, on linkers, in order; H or OH if unused. Where a SMILES comes first, the peptide text is derived from it. Where no end group is shown, it is not given here. Side-chain parts run from the residue outwards. The star is where a group is joined. γGlu = O=C(O)[C@H](CCC(=O)[*:2])N[*:1]; Palmitoyl = CCCCCCCCCCCCCCCC(=O)*; Hexanoyl = CCCCCC(=O)*; Propionyl = CCC(=O)* Some results are limits rather than exact numbers.

Sequence of human PAC1 (P41586 21-468): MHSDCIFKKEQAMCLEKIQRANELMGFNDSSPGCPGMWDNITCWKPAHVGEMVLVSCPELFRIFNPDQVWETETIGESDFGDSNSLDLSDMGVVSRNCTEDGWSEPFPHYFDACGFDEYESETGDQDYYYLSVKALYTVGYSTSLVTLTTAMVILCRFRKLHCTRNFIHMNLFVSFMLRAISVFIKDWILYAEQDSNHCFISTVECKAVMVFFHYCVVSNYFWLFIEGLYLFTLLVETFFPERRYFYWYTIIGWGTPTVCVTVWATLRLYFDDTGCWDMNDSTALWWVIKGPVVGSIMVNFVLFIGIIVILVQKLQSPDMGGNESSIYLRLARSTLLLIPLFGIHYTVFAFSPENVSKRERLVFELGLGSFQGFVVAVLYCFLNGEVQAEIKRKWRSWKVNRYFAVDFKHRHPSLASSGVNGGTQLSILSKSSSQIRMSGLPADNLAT

As a reminder, the IC50 is the concentration that gives 50% inhibition. Low readings indicate inhibition by little substance, high ones a need for much substance. Take `CCCCCC(=O)N[C@@H](Cc1c[nH]cn1)C(=O)N[C@@H](CO)C(=O)N[C@@H](CC(=O)O)C(=O)N[C@@H](C)C(=O)N[C@H](C(=O)N[C@@H](Cc1ccccc1)C(=O)N[C@H](C(=O)N[C@@H](CC(=O)O)C(=O)N[C@@H](CC(N)=O)C(=O)N[C@@H](Cc1ccc(O)cc1)C(=O)N[C@H](C(=O)N[C@@H](CCCNC(=N)N)C(=O)N[C@@H](CC(C)C)C(=O)N[C@@H](CCCNC(=N)N)C(=O)N[C@@H](CCCCN)C(=O)N[C@@H](CCC(N)=O)C(=O)N[C@H](C(=O)N[C@@H](C)C(=O)N[C@@H](C)C(=O)N[C@@H](CCCCN)C(=O)N[C@@H](CCCCN)C(=O)N[C@@H](Cc1ccc(O)cc1)C(=O)N[C@@H](CC(C)C)C(=O)N[C@@H](CCC(N)=O)C(=O)N[C@@H](CO)C(=O)N[C@H](C(=O)N[C@@H](CCCCN)C(=O)N[C@@H](CC(N)=O)C(=O)N[C@@H](CO)C(=O)N[C@@H](CCCNC(=N)N)C(=O)N[C@H](C(=O)N[C@@H](CO)C(=O)N1CCC[C@H]1C(=O)N1CCC[C@H]1C(=O)N1CCC[C@H]1C(=O)N[C@@H](CCCCNC(=O)[C@@H](N)Cc1c[nH]c2ccccc12)C(N)=O)[C@@H](C)O)[C@@H](C)CC)C(C)C)[C@@H](C)O)[C@@H](C)O)C(C)C` [Agonist P118] (Hexanoyl-HSDAVFTDNYTRLRKQVAAKKYLQSIKNSRTSPPPK(Trp)-NH2): the figures for the IC50 in test [1], in test [2] and in test [3] were 0.25 nM, 125 nM and 76.3 nM, respectively.
What is called EC50 is the midpoint of the concentration-response curve. Lower therefore signals greater potency. Regarding `CC[C@H](C)[C@H](NC(=O)[C@H](CO)NC(=O)[C@H](CCC(N)=O)NC(=O)[C@H](CC(C)C)NC(=O)[C@H](Cc1ccc(O)cc1)NC(=O)[C@H](CCCCN)NC(=O)[C@H](CCCCN)NC(=O)[C@H](C)NC(=O)[C@H](C)NC(=O)[C@@H](NC(=O)[C@H](CCC(N)=O)NC(=O)[C@H](CCCCN)NC(=O)[C@H](CCCNC(=N)N)NC(=O)[C@H](CC(C)C)NC(=O)[C@H](CCCNC(=N)N)NC(=O)[C@@H](NC(=O)[C@H](Cc1ccc(O)cc1)NC(=O)[C@H](CC(N)=O)NC(=O)[C@H](CC(=O)O)NC(=O)[C@@H](NC(=O)[C@H](Cc1ccccc1)NC(=O)[C@@H](NC(=O)[C@H](C)NC(=O)[C@H](CC(=O)O)NC(=O)[C@H](CO)NC(=O)[C@@H](N)Cc1c[nH]cn1)C(C)C)[C@@H](C)O)[C@@H](C)O)C(C)C)C(=O)N[C@@H](CCCCN)C(=O)N[C@@H](CC(N)=O)C(=O)N[C@@H](CO)C(=O)N[C@@H](CCCNC(=N)N)C(=O)N[C@H](C(=O)N[C@@H](CO)C(=O)N1CCC[C@H]1C(=O)N1CCC[C@H]1C(=O)N1CCC[C@H]1C(=O)N[C@@H](CCCCNC(=O)[C@@H](N)Cc1c[nH]c2ccccc12)C(N)=O)[C@@H](C)O` [Agonist P128] (H-HSDAVFTDNYTRLRKQVAAKKYLQSIKNSRTSPPPK(Trp)-NH2), the response in test [4] was half-maximal at 1.78 nM (EC50). Also, the IC50 in test [1] was 2.25 nM; in test [2], 104 nM; in test [3], 110 nM.
In test [4], `CCCCCC(=O)N[C@@H](Cc1c[nH]cn1)C(=O)N[C@@H](CO)C(=O)N[C@@H](CC(=O)O)C(=O)N[C@@H](C)C(=O)N[C@H](C(=O)N[C@@H](Cc1ccccc1)C(=O)N[C@H](C(=O)N[C@@H](CC(=O)O)C(=O)N[C@@H](CC(N)=O)C(=O)N[C@@H](Cc1ccc(O)cc1)C(=O)N[C@H](C(=O)N[C@@H](CCCNC(=N)N)C(=O)N[C@@H](CC(C)C)C(=O)N[C@@H](CCCNC(=N)N)C(=O)N[C@@H](CCCCN)C(=O)N[C@@H](C)C(=O)N[C@@H](C)C(=O)N[C@@H](C)C(=O)N[C@@H](C)C(=O)N[C@@H](CCCCN)C(=O)N[C@@H](CCCCN)C(=O)N[C@@H](Cc1ccc(O)cc1)C(=O)N[C@@H](CC(C)C)C(=O)N[C@@H](CCC(N)=O)C(=O)N[C@@H](CO)C(=O)N[C@H](C(=O)N[C@@H](CCCCN)C(=O)N[C@@H](CC(N)=O)C(=O)N[C@@H](CO)C(=O)N[C@@H](CCCNC(=N)N)C(=O)N[C@H](C(=O)N[C@@H](CO)C(=O)N1CCC[C@H]1C(=O)N1CCC[C@H]1C(=O)N1CCC[C@H]1C(N)=O)[C@@H](C)O)[C@@H](C)CC)[C@@H](C)O)[C@@H](C)O)C(C)C` [Agonist P178] (Hexanoyl-HSDAVFTDNYTRLRKAAAAKKYLQSIKNSRTSPPP-NH2) had an EC50 of 0.12 nM. The IC50 in test [1] was 0.16 nM; in test [3] it was 35.7 nM.
In test [2], `CC[C@H](C)[C@H](NC(=O)[C@H](CO)NC(=O)[C@H](CC(N)=O)NC(=O)[C@H](CC(C)C)NC(=O)[C@H](Cc1ccc(O)cc1)NC(=O)[C@H](CCCCN)NC(=O)[C@H](CCCCN)NC(=O)[C@@H](NC(=O)[C@H](C)NC(=O)[C@H](CCSC)NC(=O)[C@H](CCC(N)=O)NC(=O)[C@H](CCCCN)NC(=O)[C@H](CCCN=C(N)N)NC(=O)[C@H](CC(C)C)NC(=O)[C@H](CCCN=C(N)N)NC(=O)[C@@H](NC(=O)[C@H](Cc1ccc(O)cc1)NC(=O)[C@H](CC(N)=O)NC(=O)[C@H](CC(=O)O)NC(=O)[C@@H](NC(=O)[C@H](Cc1ccccc1)NC(=O)[C@@H](NC(=O)[C@H](C)NC(=O)[C@H](CC(=O)O)NC(=O)[C@H](CO)NC(=O)[C@@H](N)Cc1cnc[nH]1)C(C)C)[C@@H](C)O)[C@@H](C)O)C(C)C)C(=O)N[C@@H](CC(C)C)C(=O)N[C@@H](CC(N)=O)C(=O)O` [VIP, reference compound] returned an IC50 of more than 25000 nM.

B1: P95 (peptide)
peptide: Propionyl-HSDAVFTDNYTRLRKQVAAKKYLQSIKNSRTSPPPK([γGlu-Palmitoyl])-NH2
SMILES: CCCCCCCCCCCCCCCC(=O)N[C@@H](CCC(=O)NCCCC[C@H](NC(=O)[C@@H]1CCCN1C(=O)[C@@H]1CCCN1C(=O)[C@@H]1CCCN1C(=O)[C@H](CO)NC(=O)[C@@H](NC(=O)[C@H](CCCNC(=N)N)NC(=O)[C@H](CO)NC(=O)[C@H](CC(N)=O)NC(=O)[C@H](CCCCN)NC(=O)[C@@H](NC(=O)[C@H](CO)NC(=O)[C@H](CCC(N)=O)NC(=O)[C@H](CC(C)C)NC(=O)[C@H](Cc1ccc(O)cc1)NC(=O)[C@H](CCCCN)NC(=O)[C@H](CCCCN)NC(=O)[C@H](C)NC(=O)[C@H](C)NC(=O)[C@@H](NC(=O)[C@H](CCC(N)=O)NC(=O)[C@H](CCCCN)NC(=O)[C@H](CCCNC(=N)N)NC(=O)[C@H](CC(C)C)NC(=O)[C@H](CCCNC(=N)N)NC(=O)[C@@H](NC(=O)[C@H](Cc1ccc(O)cc1)NC(=O)[C@H](CC(N)=O)NC(=O)[C@H](CC(=O)O)NC(=O)[C@@H](NC(=O)[C@H](Cc1ccccc1)NC(=O)[C@@H](NC(=O)[C@H](C)NC(=O)[C@H](CC(=O)O)NC(=O)[C@H](CO)NC(=O)[C@H](Cc1c[nH]cn1)NC(=O)CC)C(C)C)[C@@H](C)O)[C@@H](C)O)C(C)C)[C@@H](C)CC)[C@@H](C)O)C(N)=O)C(=O)O
As for B1, in test [5], the EC50 (nM) for cAMP generation, Alpha Screen came out at 0.24 nM and the EC50 (nM) for cAMP generation, DiscoveRx is 0.45 nM.
Turning to HSDAVFTDNYTRLRKQAAAKKYLQSIKNSRTSPPP-NH2 [P96], the EC50 (nM) for cAMP generation, Alpha Screen in test [5] amounted to 0.9 nM.
